Patent US20220096539A1, “SALT NANOPARTICLES AND COMPOSITIONS AND METHODS OF USE THEREOF” (priority 2019, published 2022)

Assays:
PC-3 cells [1] = type: cell-based, human; conditions: MTT 24 h; NaCl salt at 160 μg/mL; free phospholipid
Description: Cells were seeded into 96-well plates at the density of 1×10^4 cells per well and incubated overnight. […] MTT assays (3-(4,5-dimethylthiazol-2-yl)-2,5-diphenyl tetrazolium bromide, Sigma) were performed following the manufacture's protocol. The absorbance at 570 nm was measured by a microplate reader (Synergy Mx, BioTeK). All measurements were performed in sextuplicate.

SCC VII cells = assay: CRT presentation, ATP and HMGB-1 release; type: cell-based, murine; conditions: control
Description: (§1) CRT expression on cell surface in flow cytometry assessment. T24, UMUC2, UPPL-1541, BBN963, B16F10, and SCC VII cells are seeded into the 6 wells plate at 1×10^6 per well. After overnight incubation, the cells were treated with NaCl particles ([…]) (160 μg/mL) for 2 h. PBS treated cells were used as a control. All the cells were collected by cell […], and incubated with an Alexa Fluor® 647-conjugated anti-CRT antibody (ab196159, 1/500. Abcam) for 30 min at 4° C. The cells were incubated in 500 μL PBS containing 50 μg/mL propidium iodide before washing and assessment on a flow cytometer. The data were expressed in histogram compared to the PBS treated control cells. Cells were seeded into 96-well plates at the density of 1×10^4 cells per well and incubated overnight. Then the cells were treated with […] dispersed in PBS at a dose range of 13.2-320 μg/mL for 1, 2, 4 h and 24 h. Cell supernatant was collected after 1-4 h incubation and tested in ATP 1step Luminescence Assay System, 100 mL ATP Assay Kit (PerkinElmer, US) following the manufacture's protocol. […] The luminescence was measured by a microplate reader (Synergy Mx, BioTeK). All measurements were performed in sextuplicate. Cell supernatant was collected after 24 h incubation and tested in an ELISA kit (IBL International GmbH), according to the manufacturer's instructions.

B16F10 cells = assay: CRT presentation, ATP and HMGB-1 release; type: cell-based, murine; conditions: control
Description: as §1

PC-3 cells [2] = assay: Necrosis inhibition study (LDH release); type: cell-based, human; conditions: PC-3 cells pre-incubated with inhibitor 1 h, then PSCNPs
Description: PC-3 cells were plated overnight at a density of 1×10^4 cells per well in a 96-well plate. These cells were pre-treated with necrosis inhibitor glycine (5 mM) or capsase-1 inhibitor Ac-YVAD-cmk (30 μg/mL) for 1 h, and then incubated with […] (160 or 320 μg/mL) for 6 h. Cell without glycine or Ac-YVAD-cmk treatment were studied as controls. Supernatants were collected and the LDH contents were analyzed by LDH Assay Kit-WST (CT01-05, Dojindo, Japan). The results were normalized to PBS treated control cells.

PC-3 tumor xenografts = assay: In vivo therapy study, PC-3 tumor model; conditions: mouse
Description: Animal studied were performed according to a protocol approved by the Institutional Animal Care and Use Committee (IACUC) of the University of Georgia. The animals were maintained under pathogen-free conditions. PC-3 tumor model was generated by subcutaneously injecting 2×10^6 cells in 50 μL PBS into the right flank of 5-6 week old male athymic nude mice (Charles River). U-87 MG tumor model was generated in female athymic nude mice (Charles River) following the same method as PC-3 model. B16F10 tumor model was generated by subcutaneously injecting 2×10^5 cells in 50 μL PBS into the right flank of 5-6 week old female C57BU6 mice (Charles River). SCC VII tumor model was generated by subcutaneously injecting […] in 50 μL PBS into the right flank of 5-6 week old female C3H/HeN mice (Charles River). UPPL-1541 tumor model was generated by subcutaneously injecting 1×10^6 cells in 50 μL PBS into the right flank of 5-6 week old female C57BL6 mice (Charles River).
For therapy studies, PC-3 tumor bearing mice were randomly divided into 2 groups (n=5 for each group). When the average tumor volume was about 100 mm^3, PSCNPs (9 mg/mL, 50 μL) were intratumorally injected on day 0, 2 and 4. For control, saline at the same volume was injected. […] The tumor was measured in two dimensions with a caliper, and the tumor volume was estimated as (length)×(width) 2/2. […]

[3] = type: physicochemical; conditions: pH 5.5
Description: were dispersed in 100 μl ammonium acetate buffers (pH=5.5 or pH=7) and added into a Slide-A-LyzerTM MINI Dialysis Device (MWCO=2K, Cat #69550, Thermofisher, US). Place the unite into a 5 mL Eppendorf tube containing 4.5 mL ammonium acetate buffer. Keep the tube on the shaker (20 rpm) at room temperature. […] All measurements were performed following the manufacture's protocol and repeated in sextuplicate.

| Molecule | toxicity to PC-3 cells (PC-3 cells [1]) | reduction of PSCNP-induced LDH release (PC-3 cells [2]) | other results |
| --- | --- | --- | --- |
| 1,2-distearoyl-sn-glycero-3-phosphoethanolamine-N-[amino(polyethylene glycol)-2000] (ammonium salt) [free phospholipid] | no toxicity |  |  |
| [Cl-].[Na+] [NaCl salt, NaCl] | no toxicity |  | release of ICD biomarkers (ATP and HMGB-1) (SCC VII cells): negligible impact; release of ICD biomarkers (ATP and HMGB-1) (B16F10 cells): negligible impact |
| NCC(=O)O [glycine] |  | 72.9% |  |
| Ac-YVAD-cmk |  | 60.9% |  |
| Phospholipid-coated Sodium Chloride Nanoparticles [PSCNPs] |  |  | toxicity in major organs (PC-3 tumor xenografts): no sign of toxicity; effect of lowering pH to 5.5 on nanoparticle degradation [3]: did not accelerate nanoparticle degradation |
